Assays:
[1] = system: HCC827 cells (EGFR delE746-A750); assay: Cell proliferation (CellTiter Glo, 72 hr), HCC827; assay type: cell-based, human
Protocol: (§1) A431 human epidermoid carcinoma, H1975 human NSCLC and HCC827 human NSCLC adenocarcinoma cells were obtained from the American Type Culture Center (Manassas, Va.). A431 cells were grown in DMEM (Invitrogen, Carlsbad, Calif.) supplemented with 10% FBS (HyClone, South Logan, Utah) and 1% Penicillin-Streptomycin (P/S, Lonza, Walkersville, Md.).
(§2) Growth inhibition (GI50) values were determined by Graph Pad Prism.

[2] = system: A431 cells (WT EGFR); assay: Cell proliferation (CellTiter Glo, 72 hr), A431; assay type: cell-based; conditions: Homo sapiens, A-431; A431 cells, 72 hr; read-out: WT EGFR GI50
Protocol: as §1, §2

[3] = system: H1975 cells (EGFR L858R/T790M); assay: Cell proliferation (CellTiter Glo, 72 hr), H1975; assay type: cell-based, human
Protocol: as §1, §2

[4] = biological target: WT EGFR (A431 cells) (Homo sapiens (Human), UniProt P00533); assay: EGFR signaling immunoblot (1 hr) in A431 cells; assay type: cell-based
Protocol: as §1
(§3) All primary antibodies were obtained from Cell Signaling (Danvers, Mass.) and used at 1:1000. Secondary antibodies were used at 1:10,000. Goat anti-mouse IgG IRDye 800CW antibody was obtained from LiCor Biosciences (Lincoln, Nebr.) and goat anti-rabbit IgG Alexa Fluor 680 was obtained from Invitrogen.
(§4) Cells were grown in 12-well plates (Corning, Coring, N.Y.) to 90% confluence and then incubated in low-serum (0.1% FBS) media for 16-18 hr. […] A431 cells were then stimulated with 50 ng/ml EGF (Peprotech, Rocky Hill, N.J.) for 15 min. After treatment, cell monolayers were washed with cold PBS (Invitrogen) and immediately lysed by scrapping into 60 uL cold Cell Extraction Buffer (Invitrogen) supplemented with Complete Protease inhibitors (Roche, Indianapolis, Ind.) and PhosphoSTOP (Roche) phosphatase inhibitors.
(§5) Phospho-protein signals were quantitated using Odyssey Infrared Imaging (Li-Cor Biosciences).
Blots were normalized as indicated above. […]

[5] = biological target: EGFR L858R/T790M (H1975 cells) (Homo sapiens (Human), UniProt P00533, L858R/T790M); assay: EGFR signaling immunoblot (1 hr) in H1975 cells; assay type: cell-based
Protocol: as §1, §3, §4, §5
Blots were normalized as indicated above. […] Normalized data was fitted using a sigmoidal curve analysis program (Graph Pad Prism version 5) with variable Hill slope to determine the EC50 values.

[6] = biological target: EGFR T790M/L858R (Homo sapiens (Human), UniProt P00533, L858R/T790M); conditions: MS analysis

C=CC(=O)Nc1cccc(Oc2nc(Nc3ccc(OC)c(OC)c3OC)ncc2Cl)c1 [Compound I-7, N-(3-(5-chloro-2-(2,3,4-trimethoxyphenylamino)pyrimidin-4-yloxy)phenyl)acrylamide]
GI50 ([1]; Homo sapiens, HCC827 cells, 72 hr, read-out: HCC827 GI50): 100 to 500 nM | Ratio WT/mutant ([1]; proliferation GI50, WT (A431) vs HCC827): >15 | GI50 [2]: > 1000 nM | GI50 ([3]; Homo sapiens, NCI-H1975, H1975 cells, 72 hr, read-out: H1975 GI50): 100 to 500 nM | Ratio WT/mutant ([3]; proliferation GI50, WT (A431) vs H1975): >10 | WT-EGFR sparing in A431 cells (pEGFR, pS6) [4]: completely WT-EGFR sparing | inhibition of pEGFR and downstream S6 Ribosomal protein in H1975 cells ([5]; H1975 vs A431, FIG. 1 and 2): mutant selective | Ratio WT/mutant ([5]; signaling EC50, WT (A431) vs H1975): >50 | covalent modification of EGFR T790M/L858R [6]: covalently modify

— patent publication US10081606B2, “Heteroaryl compounds and uses thereof” (Celgene CAR LLC, priority 2010, dated 2018)
